In publication PMC12221116, “Novel Quinazolinones Active against Multidrug‐Resistant Mycobacterium Tuberculosis: Synthesis, Antimicrobial Evaluation, and in Silico Exploration of Penicillin‐Binding Protein 1A as a Potential Target” (Chemmedchem, 2025):
Where two headings read alike, the source gives them in different places.

Assays:
Mtb H37Ra = experiment: Microdilution broth resazurin assay, MIC; assay type: cell-based, Mycobacterium tuberculosis
Mtb H37Rv = experiment: Microplate Alamar Blue assay, MIC; assay type: cell-based, Mycobacterium tuberculosis; conditions: Mycobacterium tuberculosis, H37RV
M. smegmatis = experiment: Microdilution broth resazurin assay, MIC; assay type: cell-based, Mycolicibacterium smegmatis; conditions: for MIC: Mycolicibacterium smegmatis, read-out: Antimycobacterial Activity MIC M. smeg.
M. kansasii = experiment: Microplate Alamar Blue assay, MIC; assay type: cell-based, Mycobacterium kansasii; conditions: Mycobacterium kansasii; read-out: Antimycobacterial Activity MIC M. kans.
M. aurum = experiment: Microdilution broth resazurin assay, MIC; assay type: cell-based, Mycolicibacterium aurum; conditions: for MIC: Mycolicibacterium aurum, read-out: Antimycobacterial Activity MIC M. aurum
M. avium = experiment: Microdilution broth resazurin assay, MIC; assay type: cell-based, Mycobacterium avium; conditions: for MIC: Mycobacterium avium, read-out: Antimycobacterial Activity MIC M. avium
[1] = Microplate Alamar Blue assay, read-out: Antimycobacterial Activity MIC Mtb H37Rv
[2] = Mycobacterium tuberculosis, H37RA; read-out: Antimycobacterial Activity MIC Mtb H37Ra

## Cc1nc2cc(Cl)ccc2c(=O)n1Cc1ccc2ccccc2c1 [Compound 23]
Mtb H37Ra
  Antimycobacterial Activity MIC Mtb H37Ra: ≥125 µg/mL
Mtb H37Ra; Mycobacterium tuberculosis, H37RA, read-out: Antimycobacterial Activity MIC Mtb H37Ra
  MIC: ≥ 125 µg/mL
Mtb H37Rv; [1]
  MIC: > 100 µg/mL
Mtb H37Rv; read-out: Antimycobacterial Activity MIC Mtb H37Rv, Table S5 matching pairs series A and B
  MIC: > 100 µg/mL
M. smegmatis
  Antimycobacterial Activity MIC M. smeg.: ≥125 µg/mL
  MIC: ≥ 125 µg/mL
M. kansasii
  MIC: > 100 µg/mL
M. aurum
  Antimycobacterial Activity MIC M. aurum: ≥125 µg/mL
  MIC: ≥ 125 µg/mL
M. avium
  Antimycobacterial Activity MIC M. avium: ≥125 µg/mL
  MIC: ≥ 125 µg/mL

## Cc1nc2cc(Cl)ccc2c(=O)n1/N=C/c1ccccc1[N+](=O)[O-] [Compound 26]
Mtb H37Ra; [2]
  MIC: ≥ 62.5 µg/mL
Mtb H37Rv; [1]
  MIC: > 25 µg/mL
M. smegmatis
  MIC: ≥ 62.5 µg/mL
M. kansasii
  MIC: > 25 µg/mL
M. aurum
  MIC: ≥ 62.5 µg/mL
M. avium
  MIC: ≥ 62.5 µg/mL

## Cc1nc2cc(Cl)ccc2c(=O)n1/N=C/c1cccc([N+](=O)[O-])c1 [Compound 27]
Mtb H37Ra; [2]
  MIC: ≥ 62.5 µg/mL
Mtb H37Rv; [1]
  MIC: > 50 µg/mL
M. smegmatis
  MIC: ≥ 62.5 µg/mL
M. kansasii
  MIC: > 50 µg/mL
M. aurum
  MIC: ≥ 62.5 µg/mL
M. avium
  MIC: ≥ 62.5 µg/mL

## Cc1nc2cc(Cl)ccc2c(=O)n1/N=C/c1ccc([N+](=O)[O-])cc1 [Compound 28]
Mtb H37Ra; [2]
  MIC: ≥ 31.2 µg/mL
Mtb H37Rv; [1]
  MIC: > 25 µg/mL
M. smegmatis
  MIC: ≥ 31.2 µg/mL
M. kansasii
  MIC: > 25 µg/mL
M. aurum
  MIC: ≥ 31.2 µg/mL
M. avium
  MIC: ≥ 31.2 µg/mL

## Cc1nc2cc(Cl)ccc2c(=O)n1/N=C/c1ccccn1 [Compound 29]
Mtb H37Ra; [2]
  MIC: ≥ 31.2 µg/mL
Mtb H37Rv; [1]
  MIC: > 25 µg/mL
M. smegmatis
  MIC: ≥ 31.2 µg/mL
M. kansasii
  MIC: > 25 µg/mL
M. aurum
  MIC: ≥ 31.2 µg/mL
M. avium
  MIC: ≥ 31.2 µg/mL

## Cc1nc2cc(Cl)ccc2c(=O)n1/N=C/c1cccnc1 [Compound 30]
Mtb H37Ra; [2]
  MIC: ≥ 31.2 µg/mL
Mtb H37Rv; [1]
  MIC: > 25 µg/mL
M. smegmatis
  MIC: ≥ 31.2 µg/mL
M. kansasii
  MIC: > 25 µg/mL
M. aurum
  MIC: ≥ 31.2 µg/mL
M. avium
  MIC: ≥ 31.2 µg/mL

## Cc1nc2cc(Cl)ccc2c(=O)n1/N=C/c1ccncc1 [Compound 31]
Mtb H37Ra; [2]
  MIC: ≥ 31.2 µg/mL
Mtb H37Rv; [1]
  MIC: > 25 µg/mL
M. smegmatis
  MIC: ≥ 31.2 µg/mL
M. kansasii
  MIC: > 25 µg/mL
M. aurum
  MIC: ≥ 31.2 µg/mL
M. avium
  MIC: ≥ 31.2 µg/mL

## Cc1nc2cc(Cl)ccc2c(=O)n1/N=C/c1ccc(O)cc1O [Compound 33]
Mtb H37Ra; [2]
  MIC: ≥ 62.5 µg/mL
Mtb H37Rv; [1]
  MIC: > 100 µg/mL
M. smegmatis
  MIC: ≥ 62.5 µg/mL
M. kansasii
  MIC: > 100 µg/mL
M. aurum
  MIC: ≥ 62.5 µg/mL
M. avium
  MIC: ≥ 62.5 µg/mL

## COc1cc(/C=N/n2c(C)nc3cc(Cl)ccc3c2=O)ccc1O [Compound 34]
Mtb H37Ra; [2]
  MIC: ≥ 62.5 µg/mL
Mtb H37Rv; [1]
  MIC: > 100 µg/mL
M. smegmatis
  MIC: ≥ 62.5 µg/mL
M. kansasii
  MIC: > 100 µg/mL
M. aurum
  MIC: ≥ 62.5 µg/mL
M. avium
  MIC: ≥ 62.5 µg/mL

## Cc1nc2cc(Cl)ccc2c(=O)n1/N=C/c1ccccc1O [Compound 35]
Mtb H37Ra; [2]
  MIC: ≥ 31.2 µg/mL
Mtb H37Rv; [1]
  MIC: > 50 µg/mL
M. smegmatis
  MIC: ≥ 31.2 µg/mL
M. kansasii
  MIC: > 50 µg/mL
M. aurum
  MIC: ≥ 31.2 µg/mL
M. avium
  MIC: ≥ 31.2 µg/mL

## Cc1nc2cc(Cl)ccc2c(=O)n1/N=C/c1cccc(O)c1 [Compound 36]
Mtb H37Ra; [2]
  MIC: ≥ 62.5 µg/mL
Mtb H37Rv; [1]
  MIC: > 100 µg/mL
M. smegmatis
  MIC: ≥ 62.5 µg/mL
M. kansasii
  MIC: > 100 µg/mL
M. aurum
  MIC: ≥ 62.5 µg/mL
M. avium
  MIC: ≥ 62.5 µg/mL

## Cc1nc2cc(Cl)ccc2c(=O)n1/N=C/c1ccc(O)cc1 [Compound 37]
Mtb H37Ra; [2]
  MIC: ≥ 62.5 µg/mL
Mtb H37Rv; [1]
  MIC: > 50 µg/mL
M. smegmatis
  MIC: ≥ 62.5 µg/mL
M. kansasii
  MIC: > 50 µg/mL
M. aurum
  MIC: ≥ 62.5 µg/mL
M. avium
  MIC: ≥ 62.5 µg/mL

## COc1ccccc1/C=N/n1c(C)nc2cc(Cl)ccc2c1=O [Compound 38]
Mtb H37Ra; [2]
  MIC: ≥ 62.5 µg/mL
Mtb H37Rv; [1]
  MIC: > 25 µg/mL
M. smegmatis
  MIC: ≥ 62.5 µg/mL
M. kansasii
  MIC: > 25 µg/mL
M. aurum
  MIC: ≥ 62.5 µg/mL
M. avium
  MIC: ≥ 62.5 µg/mL

## COc1cccc(/C=N/n2c(C)nc3cc(Cl)ccc3c2=O)c1 [Compound 39]
Mtb H37Ra; [2]
  MIC: ≥ 62.5 µg/mL
Mtb H37Rv; [1]
  MIC: > 50 µg/mL
M. smegmatis
  MIC: ≥ 62.5 µg/mL
M. kansasii
  MIC: > 50 µg/mL
M. aurum
  MIC: ≥ 62.5 µg/mL
M. avium
  MIC: ≥ 62.5 µg/mL

## COc1ccc(/C=N/n2c(C)nc3cc(Cl)ccc3c2=O)cc1 [Compound 40]
Mtb H37Ra; [2]
  MIC: ≥ 15.6 µg/mL
Mtb H37Rv; [1]
  MIC: > 50 µg/mL
M. smegmatis
  MIC: ≥ 15.6 µg/mL
M. kansasii
  MIC: > 50 µg/mL
M. aurum
  MIC: ≥ 15.6 µg/mL
M. avium
  MIC: ≥ 15.6 µg/mL

## Cc1nc2cc(Cl)ccc2c(=O)n1/N=C/C=C/c1ccccc1 [Compound 41]
Mtb H37Ra; [2]
  MIC: ≥ 31.2 µg/mL
Mtb H37Rv; [1]
  MIC: > 25 µg/mL
M. smegmatis
  MIC: ≥ 31.2 µg/mL
M. kansasii
  MIC: > 25 µg/mL
M. aurum
  MIC: ≥ 31.2 µg/mL
M. avium
  MIC: ≥ 31.2 µg/mL

## Cc1nc2cc(Cl)ccc2c(=O)n1/N=C/c1ccccc1F [Compound 42]
Mtb H37Ra; [2]
  MIC: ≥ 31.2 µg/mL
Mtb H37Rv; [1]
  MIC: > 25 µg/mL
M. smegmatis
  MIC: ≥ 31.2 µg/mL
M. kansasii
  MIC: > 25 µg/mL
M. aurum
  MIC: ≥ 31.2 µg/mL
M. avium
  MIC: ≥ 31.2 µg/mL

## Cc1nc2cc(Cl)ccc2c(=O)n1/N=C/c1cccc(F)c1 [Compound 43]
Mtb H37Ra; [2]
  MIC: ≥ 62.5 µg/mL
Mtb H37Rv; [1]
  MIC: > 25 µg/mL
M. smegmatis
  MIC: ≥ 62.5 µg/mL
M. kansasii
  MIC: > 25 µg/mL
M. aurum
  MIC: ≥ 62.5 µg/mL
M. avium
  MIC: ≥ 62.5 µg/mL

## Cc1nc2cc(Cl)ccc2c(=O)n1/N=C/c1ccc(F)cc1 [Compound 44]
Mtb H37Ra; [2]
  MIC: ≥ 31.2 µg/mL
Mtb H37Rv; [1]
  MIC: > 25 µg/mL
M. smegmatis
  MIC: ≥ 31.2 µg/mL
M. kansasii
  MIC: > 25 µg/mL
M. aurum
  MIC: ≥ 31.2 µg/mL
M. avium
  MIC: ≥ 31.2 µg/mL

## Cc1nc2cc(Cl)ccc2c(=O)n1/N=C/c1ccc(N(C)C)cc1 [Compound 45]
Mtb H37Ra; [2]
  MIC: ≥ 15.6 µg/mL
Mtb H37Rv; [1]
  MIC: > 25 µg/mL
M. smegmatis
  MIC: ≥ 15.6 µg/mL
M. kansasii
  MIC: > 25 µg/mL
M. aurum
  MIC: ≥ 15.6 µg/mL
M. avium
  MIC: ≥ 15.6 µg/mL

## Cc1ccccc1/C=N/n1c(C)nc2cc(Cl)ccc2c1=O [Compound 46]
Mtb H37Ra; [2]
  MIC: ≥ 62.5 µg/mL
Mtb H37Rv; [1]
  MIC: > 25 µg/mL
M. smegmatis
  MIC: ≥ 62.5 µg/mL
M. kansasii
  MIC: > 25 µg/mL
M. aurum
  MIC: ≥ 62.5 µg/mL
M. avium
  MIC: ≥ 62.5 µg/mL

## Cc1cccc(/C=N/n2c(C)nc3cc(Cl)ccc3c2=O)c1 [Compound 47]
Mtb H37Ra; [2]
  MIC: ≥ 31.2 µg/mL
Mtb H37Rv; [1]
  MIC: > 25 µg/mL
M. smegmatis
  MIC: ≥ 31.2 µg/mL
M. kansasii
  MIC: > 25 µg/mL
M. aurum
  MIC: ≥ 31.2 µg/mL
M. avium
  MIC: ≥ 31.2 µg/mL

## Cc1ccc(/C=N/n2c(C)nc3cc(Cl)ccc3c2=O)cc1 [Compound 48]
Mtb H37Ra; [2]
  MIC: ≥ 31.2 µg/mL
Mtb H37Rv; [1]
  MIC: > 25 µg/mL
M. smegmatis
  MIC: ≥ 31.2 µg/mL
M. kansasii
  MIC: > 25 µg/mL
M. aurum
  MIC: ≥ 31.2 µg/mL
M. avium
  MIC: ≥ 31.2 µg/mL

## Cc1nc2cc(Cl)ccc2c(=O)n1/N=C/c1ccccc1Cl [Compound 49]
Mtb H37Ra; [2]
  MIC: ≥ 31.2 µg/mL
Mtb H37Rv; [1]
  MIC: > 25 µg/mL
M. smegmatis
  MIC: ≥ 31.2 µg/mL
M. kansasii
  MIC: > 25 µg/mL
M. aurum
  MIC: ≥ 31.2 µg/mL
M. avium
  MIC: ≥ 31.2 µg/mL

## Cc1nc2cc(Cl)ccc2c(=O)n1/N=C/c1cccc(Cl)c1 [Compound 50]
Mtb H37Ra; [2]
  MIC: ≥ 62.5 µg/mL
Mtb H37Rv; [1]
  MIC: > 50 µg/mL
M. smegmatis
  MIC: ≥ 62.5 µg/mL
M. kansasii
  MIC: > 50 µg/mL
M. aurum
  MIC: ≥ 62.5 µg/mL
M. avium
  MIC: ≥ 62.5 µg/mL

## Cc1nc2cc(Cl)ccc2c(=O)n1/N=C/c1ccc(Cl)cc1 [Compound 51]
Mtb H37Ra; [2]
  MIC: ≥ 15.6 µg/mL
Mtb H37Rv; [1]
  MIC: > 25 µg/mL
M. smegmatis
  MIC: ≥ 15.6 µg/mL
M. kansasii
  MIC: > 25 µg/mL
M. aurum
  MIC: ≥ 15.6 µg/mL
M. avium
  MIC: ≥ 15.6 µg/mL

## Cc1nc2cc(Cl)ccc2c(=O)n1/N=C/c1ccccc1Br [Compound 52]
Mtb H37Ra; [2]
  MIC: ≥ 31.2 µg/mL
Mtb H37Rv; [1]
  MIC: > 25 µg/mL
M. smegmatis
  MIC: ≥ 31.2 µg/mL
M. kansasii
  MIC: > 25 µg/mL
M. aurum
  MIC: ≥ 31.2 µg/mL
M. avium
  MIC: ≥ 31.2 µg/mL

## Cc1nc2cc(Cl)ccc2c(=O)n1/N=C/c1cccc(Br)c1 [Compound 53, (E)-7-Chloro-3-((3-bromobenzylidene)amino)-2-methylquinazolin-4(3H)-one]
Mtb H37Ra; [2]
  MIC: ≥ 31.2 µg/mL
Mtb H37Rv; [1]
  MIC: > 25 µg/mL
M. smegmatis
  MIC: ≥ 31.2 µg/mL
M. kansasii
  MIC: > 25 µg/mL
M. aurum
  MIC: ≥ 31.2 µg/mL
M. avium
  MIC: ≥ 31.2 µg/mL
